One experiment concerns the target CDK2 (UniProt P24941). Put plainly: Enzyme Assay.
Another experiment concerns the target CDK2 (human) (UniProt P24941). The experiment is described as follows: Cell-Based Assay.
A further experiment has as its system CDK2 (mouse). Put plainly: Cell-Based Assay. The note with it: p388.
A further experiment concerns CDK2 (murine). Put plainly: Animal Model. The note with it: l1210.
Another experiment has as its system CDK2 (rat). Put plainly: Cell-Based Assay. The note with it: rasmc.

≈ marks a conversion by molar mass, not a printed value. Where “and” joins values, the source holds several entries; their conditions need not be identical. Equal entries are not always repeated.

Consider `COc1cccc(CNc2nc(N(CCO)CCO)nc3c2ncn3C(C)C)c1`, for which the IC50 (as a rule, the concentration at which inhibition is half-maximal) against CDK2 was determined as 0.5 µg/mL (≈ 1.25 µM).
Molecule `CC(C)Cn1cnc2c(NCc3ccc(C(F)(F)F)cc3)nc(N(CCO)CCO)nc21` came in with an IC50 on CDK2 of 59 µg/mL (≈ 130 µM).
Regarding `COc1ccc(CNc2nc(Cl)nc3c2ncn3C(F)(F)F)cc1`, the IC50 at CDK2 is more than 60 µg/mL.
On the same count and under the same terms, then `COc1ccc(CNc2nc(Cl)nc3c2ncn3CC(C)C)cc1`, with 60 µg/mL (≈ 173 µM); and `COc1ccc(CNc2nc(NCCO)nc3c2ncn3C)cc1`, with 4 µg/mL (≈ 12.2 µM); and `COc1ccc(CNc2nc(N(Cc3cccnc3)CC(C)C#N)nc3c2ncn3C(C)C)cc1` (stereo not drawn), with 1 µg/mL (≈ 2.13 µM).
`CC(C)n1cnc2c(NCc3ccc(F)cc3)nc(N(CCO)CCO)nc21` registered an IC50 at CDK2 of 0.15 µg/mL (≈ 0.386 µM).
On the same count and under the same terms, under `CC(C)n1cnc2c(NCc3ccc4c(c3)OCO4)nc(N(CCO)CCO)nc21` stands 0.8 µg/mL (≈ 1.93 µM).
The same measure, in the same setting: under `CC(C)n1cnc2c(NCc3ccc(F)cc3)nc(NC[C@H]3CCCO3)nc21` stands 0.58 µg/mL (≈ 1.51 µM).
In the case of `OCCNc1nc(NCc2ccccc2)nc2[nH]cnc12`, the IC50 against CDK2 was more than 60 µg/mL.
On to `CC(C)n1cnc2c(NCc3ccc(Cl)cc3)nc(NCCCN)nc21`, for which, on CDK2, the IC50 amounted to 1 µg/mL (≈ 2.67 µM).
In the case of `CC(C)n1cnc2c(-c3cccc(OCc4ccccc4)c3)nc(N(CCO)CCO)nc21.CC(C)n1cnc2c(-c3cccc(Oc4ccccc4)c3)nc(N(CCO)CCO)nc21`, the concentration for half-maximal inhibition (IC50) came to 2 µg/mL at CDK2 (human) (mcf-7), 2 µg/mL on CDK2 (human) (ovcar), 2.5 µg/mL at CDK2 (human) (panc1) and 1.5 µg/mL in the experiment on CDK2 (mouse).
In turn, `CSc1ccc(Nc2nc(Cl)nc3c2ncn3C(C)C)cc1` displayed an IC50 on CDK2 of 0.6 µg/mL (≈ 1.8 µM).
Regarding `COc1ccc(CNc2nc(N3CCCC(O)C3)nc3c2ncn3C(C)C)cc1` (stereo not drawn), at CDK2, the IC50 worked out at 1 µg/mL (≈ 2.52 µM).
On CDK2, `Clc1ccc(COc2nc(Cl)nc3[nH]cnc23)cc1` returned an IC50 of 60 µg/mL (≈ 203 µM).
On CDK2, `CC(N)CNc1nc(NCc2ccc(F)cc2)c2ncn(C(C)C)c2n1` (stereo not drawn) came in with an IC50 of 0.48 µg/mL (≈ 1.34 µM).
For `CC(N)CNc1nc(NCc2ccc(Cl)cc2)c2ncn(C(C)C)c2n1` (stereo not drawn), the IC50 against CDK2 was found to be 0.05 µg/mL (≈ 0.134 µM); against CDK2 (human) (mrc 5), 1 µg/mL (≈ 2.67 µM).
In turn, `CC(C)n1cnc2c(NCc3ccc(-c4ccc(C(F)(F)F)cc4)cc3)nc(N(CCO)CCO)nc21` yielded an IC50 on CDK2 of 0.6 µg/mL (≈ 1.17 µM).
For the molecule `COc1ccc(CNc2nc(NCC(O)CN)nc3c2ncn3C(C)C)cc1` (stereo not drawn), the concentration for half-maximal inhibition (IC50) on CDK2 stood at 0.6 µg/mL (≈ 1.56 µM).
As to `Cc1ccc(-c2ccc(CNc3nc(N(CCO)CCO)nc4c3ncn4C(C)C)cc2)cc1`, at CDK2, the 50% inhibitory concentration (IC50) was 0.6 µg/mL (≈ 1.3 µM).
On CDK2, `COc1ccc(CNc2nc(N3CC=CC3)nc3c2ncn3C(C)C)cc1` had an IC50 of 1 µg/mL (≈ 2.74 µM).
Consider `COc1ccc(CNc2nc(N(CCO)CCO)nc3c2ncn3C(C)C)cc1`, for which, in the experiment on CDK2 (murine), the MST was 13 d (3×) and 11 d and 12 d. The molecule further gave an IC50 with CDK2 (rat) of 0.5 µg/mL (≈ 1.25 µM).
In the case of `COc1cccc(CNc2nc(Cl)nc3c2ncn3C(C)C)c1`, at CDK2, the IC50 stood at 0.9 µg/mL (≈ 2.71 µM).
On to `CC(C)n1cnc2c(NCc3ccc(Cl)cc3)nc(N[C@@H](C)CO)nc21`, for which the IC50 on CDK2 was 0.26 µg/mL (≈ 0.694 µM).
On CDK2, `COc1ccc(CNc2nc(Cl)nc3c2ncn3CCC(=O)c2cccc3ccccc23)cc1` yielded an IC50 of more than 60 µg/mL.
On CDK2, `CC(=O)C(C)n1cnc2c(NCc3ccc(F)cc3)nc(N(CCO)CCO)nc21` (stereo not drawn) gave an IC50 of 11 µg/mL (≈ 26.4 µM).
Take `CC(C)n1cnc2c(NCc3ccc(Cl)cc3)nc(N(CCO)CCO)nc21`: the figures for the 50% inhibitory concentration (IC50) on CDK2 and against CDK2 (human) (mrc 5) were 0.12 µg/mL (≈ 0.296 µM) and 3 µg/mL (≈ 7.41 µM), respectively.
The molecule `CC(C)[C@H](CO)Nc1nc(NCc2ccc(Cl)cc2)c2ncn(C(C)C)c2n1` had an IC50 on CDK2 of 0.19 µg/mL (≈ 0.472 µM).
Take `CC(C)n1cnc2c(NCc3ccc(Cl)cc3)nc(NC[C@@H](N)Cc3ccccc3)nc21`: on CDK2, the IC50 was found to be 1.07 µg/mL (≈ 2.38 µM).
Take `COc1ccc(CNc2nc(Cl)nc3c2ncn3C)cc1`: the IC50 at CDK2 was determined as 6 µg/mL (≈ 19.8 µM).
For `FC(F)(F)n1cnc2c(NCc3ccc(Cl)cc3)nc(Cl)nc21`, the IC50 on CDK2 came out at 1 µg/mL (≈ 2.76 µM).
The same measure, in the same setting: under `CC(C)n1cnc2c(NCc3ccc(Cl)cc3)nc(N(CCO)CCNCCO)nc21` stands 0.43 µg/mL (≈ 0.96 µM); under `COc1ccc(CNc2nc(Cl)nc3c2ncn3C(F)(C(F)(F)F)C(F)(F)F)cc1`, more than 45 µg/mL; under `FC(F)(F)n1cnc2c(OCc3ccc(Cl)cc3)nc(Cl)nc21`, more than 60 µg/mL.
Consider `COc1ccc(CNc2nc(N3CCOCC3)nc3c2ncn3C(C)C)cc1`, for which the IC50 at CDK2 (human) (ovcar) turned out to be 4 µg/mL (≈ 10.5 µM); against CDK2 (human) (panc1), 5.5 µg/mL (≈ 14.4 µM).
For the molecule `CSc1cccc(Nc2nc(N(CCO)CCO)nc3c2ncn3C(C)C)c1`, the IC50 on CDK2 came out at 0.1 µg/mL (≈ 0.248 µM).
For the molecule `COc1ccc(CNc2nc(N(CC(C)O)CC(C)O)nc3c2ncn3C(C)C)cc1` (stereo not drawn), the IC50 at CDK2 was found to be 0.8 µg/mL (≈ 1.87 µM).
At CDK2, `COc1ccc(CNc2nc(N(CCO)Cc3ccccc3)nc3c2ncn3C(C)C)cc1` returned an IC50 of 1 µg/mL (≈ 2.24 µM).
`CC(C)n1cnc2c(NCc3ccc(-c4ccccc4)cc3)nc(NCC(O)CO)nc21` (stereo not drawn) gave an IC50 on CDK2 of 0.6 µg/mL (≈ 1.39 µM).
In the case of `COc1ccc(CNc2nc(N(CCO)CCO)nc3c2ncn3C(F)(C(F)(F)F)C(F)(F)F)cc1`, on CDK2, the IC50 came to 40 µg/mL (≈ 76 µM).
Same read-out and setting: then `CC(C)n1cnc2c(NCc3ccc(Cl)cc3)nc(NC[C@H](C)O)nc21`, with 0.38 µg/mL (≈ 1.01 µM).

Source of the values: the Kinase Knowledgebase extract (Sharma et al. 2016).
